How the values were obtained:
neural cell line HT22 [1] = experiment: Cytotoxicity trial, trypan blue dye, cell line HT22; format: cell-based, mouse; conditions: HT22, concentrations of 1 and 5 μM
Protocol: (§1) Two stable cell lines of different origins were used for these trials: neural cell line HT22 from mouse hippocampus and line MCF7 from human breast cancer.
(§2) Both cell lines were grown in a DMEM culture medium supplemented with 10% foetal bovine serum and antibiotics at 37° C. with a 5% CO2 atmosphere. 35-mm Petri dishes were used as growth media. When the cultures reached approximately 80% confluence they were exposed to the different compounds of the study for 24 hours at 37° C., at concentrations of 0.1, 1 and 5 μM. The compounds were previously diluted in DMSO.
(§3) For the cytotoxicity trials, after 24 hours of treatment with the compounds, the cells were treated with trypsin, resuspending them in DMEM and counting them. On one hand, an aliquot of 100 μl was preserved for the total count of the cells present in Neubauer chambers. On the other, the rest of the cell volume (approximately 1 ml) was processed for dyeing with trypan blue to visualise those cells susceptible to dyeing (non-viable cells) against intact cells (viable cells). To this end, the ViCell (Beckman Coulter) quantifier was used.

MCF7 breast cancer cells [2] = experiment: Cytotoxicity trial, trypan blue dye, cell line MCF7; format: cell-based, human; conditions: for cytotoxicity (conclusion, in words): MCF7, concentrations of 1 and 5 μM
Protocol: as §1, §2, §3

cell line HT22 = experiment: Visualisation of HT22 cultures after exposure to the compounds; format: cell-based, mouse; conditions: HT22, 5 μM, after 4-5 hours of treatment
Protocol: as §1
(§4) Both cell lines were grown in a DMEM culture medium supplemented with 10% foetal bovine serum and antibiotics at 37° C. with a 5% CO2 atmosphere. 35-mm Petri dishes were used as growth media. […] The compounds were previously diluted in DMSO.
(§5) (The control cultures of FIG. 3 were compared to the cultures of HT22 and MCF7 exposed to the compounds—FIGS. 4 and 5 respectively—).

cell line MCF7 = experiment: Visualisation of MCF7 cultures after exposure to the compounds; format: cell-based, human; conditions: MCF7, 5 μM, after 4-5 hours of treatment
Protocol: as §1, §4, §5

neural cell line HT22 [3] = experiment: Cell proliferation trial, cell line HT22; format: cell-based, mouse; conditions: for antiproliferative effect (conclusion, in words): HT22; for decrease in normal proliferation: HT22, 24 hours, versus medium (DMSO at 0.01%), concentration not given
Protocol: as §1, §2, §3

MCF7 breast cancer cells [4] = experiment: Cell proliferation trial, cell line MCF7; format: cell-based, human
Protocol: as §1, §2, §3

Row | SMILES | cytotoxicity (conclusion, in words) (neural cell line HT22 [1]) | cytotoxicity (conclusion, in words) (MCF7 breast cancer cells [2]) | cytotoxic effect on visualisation of cultures (cell line HT22) | cytotoxic effect on visualisation of cultures (cell line MCF7) | antiproliferative effect (conclusion, in words) (neural cell line HT22 [3]) | decrease in normal proliferation (neural cell line HT22 [3]) | antiproliferative effect (conclusion, in words) (MCF7 breast cancer cells [4]; MCF7) | proliferation inhibition (in words) (MCF7 breast cancer cells [4]; MCF7, 24 hours, versus medium (DMSO at 0.01%)) | toxicity (percentage of cell death, trypan blue) (MCF7 breast cancer cells [2]; MCF7, 24 hours, normalised to medium (DMSO at 0.01%), concentration not given) | toxicity (in words) (MCF7 breast cancer cells [2]; MCF7, 24 hours, concentration not given)
1 | CO[C@H]1O[C@@H](OC(C)=O)[C@H]([C@@H](COC(C)=O)OC)O[C@@H]1OC [Compound 6] | highly cytotoxic | highly cytotoxic | significant cytotoxic effect | significant cytotoxic effect |  |  |  |  |  | 
2 | CO[C@@H]1O[C@@H](OC(C)=O)[C@H]([C@@H](COC(C)=O)OC)O[C@@H]1OC [Compound 7] | highly cytotoxic | highly cytotoxic | significant cytotoxic effect | significant cytotoxic effect |  |  |  |  |  | 
3 | CO[C@H]1O[C@@H]2OC[C@@H](OC)[C@@H]2O[C@@H]1OC [Compound 8] |  |  |  |  | antiproliferative effects | approximately 50% | antiproliferative effects | partial proliferation inhibition |  | 
4 | CO[C@@H]1O[C@@H]2OC[C@@H](OC)[C@@H]2O[C@@H]1OC [Compound 9] |  |  |  |  | antiproliferative effects | approximately 50% |  |  | > 65% | high toxicity
